Assay results published in paper PMC9814779, “A triple farnesoid X receptor and peroxisome proliferator-activated receptor α/δ activator reverses hepatic fibrosis in diet-induced NASH in mice” (Communications Chemistry, 2020).

Key:
DIO NASH = settings: cited from earlier work
[1] = molecular target: T1, human PPARγ ligand-binding domain (Gal4 chimera) (Homo sapiens, UniProt P37231); experiment: Gal4 hybrid reporter gene assay, PPARγ; type: cell-based; set-up: Emax: dose or concentration left out as unconfirmed
T1 construct: coding for the hinge region and LBD of the canonical isoform of the respective nuclear receptor; expressed in transfected cells; host or cells: HEK293T
T1 sequence (P37231 238-503 limits assumed): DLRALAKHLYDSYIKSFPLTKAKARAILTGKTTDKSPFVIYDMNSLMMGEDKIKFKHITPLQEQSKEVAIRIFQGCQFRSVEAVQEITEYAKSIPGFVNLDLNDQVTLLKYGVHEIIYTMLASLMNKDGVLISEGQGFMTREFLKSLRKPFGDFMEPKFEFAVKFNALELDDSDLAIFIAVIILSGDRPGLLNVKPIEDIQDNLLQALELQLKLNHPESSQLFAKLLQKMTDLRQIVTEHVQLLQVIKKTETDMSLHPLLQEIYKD

[2] = Microsomal stability assay; type: in vitro ADME, rat
[3] = 10 μM, rat liver microsomes, 37 °C, 41 n = 3, 7-EC n = 1

Compound | effects in DIO NASH (DIO NASH) | EC50 [1] | Emax ([1]; read-out: max. rel. act. PPARγ) | percent of remaining compound, 15 min [2, 3] | percent of remaining compound, 30 min [2, 3] | percent of remaining compound, 60 min [2, 3] | stability against microsomal degradation ([2]; in words)
CC[C@H]1[C@@H](O)[C@@H]2[C@H](CC[C@]3(C)[C@@H]([C@H](C)CCC(=O)O)CC[C@@H]23)[C@@]2(C)CC[C@@H](O)C[C@@H]12 [OCA, 6α-ethylchenodeoxycholic acid, reference compound] | pronounced anti-steatotic activity and slight anti-fibrotic effects | – | – | – | – | – | –
CC(C)(C)c1ccc(C(=O)Nc2cccc(CCC(=O)O)c2)c(NC(=O)c2ccc(-c3ccco3)cc2)c1 [compound 41, 3-(3-[4-{tert-Butyl}-2-{4-(2-furyl)}benzamido]phenyl)propanoic acid] | – | 2400 ± 100 nM | 16% | 95 ± 3% | 95 ± 2% | 93 ± 2% | very high stability against microsomal degradation
